Data reported in paper PMC3280214, “Structure Based Discovery of Small Molecules to Regulate the Activity of Human Insulin Degrading Enzyme” (PLoS ONE, 2012).

Biological target: T1, double mutant IDE (Gln363Ala, His332Ala) (Homo sapiens, UniProt P14735, H332A/Q363A)
T1 construct: made in house; host or cells: E. coli (BL21 inferred, as for the wild type)
T1 sequence (P14735 1-1019 H332A/Q363A): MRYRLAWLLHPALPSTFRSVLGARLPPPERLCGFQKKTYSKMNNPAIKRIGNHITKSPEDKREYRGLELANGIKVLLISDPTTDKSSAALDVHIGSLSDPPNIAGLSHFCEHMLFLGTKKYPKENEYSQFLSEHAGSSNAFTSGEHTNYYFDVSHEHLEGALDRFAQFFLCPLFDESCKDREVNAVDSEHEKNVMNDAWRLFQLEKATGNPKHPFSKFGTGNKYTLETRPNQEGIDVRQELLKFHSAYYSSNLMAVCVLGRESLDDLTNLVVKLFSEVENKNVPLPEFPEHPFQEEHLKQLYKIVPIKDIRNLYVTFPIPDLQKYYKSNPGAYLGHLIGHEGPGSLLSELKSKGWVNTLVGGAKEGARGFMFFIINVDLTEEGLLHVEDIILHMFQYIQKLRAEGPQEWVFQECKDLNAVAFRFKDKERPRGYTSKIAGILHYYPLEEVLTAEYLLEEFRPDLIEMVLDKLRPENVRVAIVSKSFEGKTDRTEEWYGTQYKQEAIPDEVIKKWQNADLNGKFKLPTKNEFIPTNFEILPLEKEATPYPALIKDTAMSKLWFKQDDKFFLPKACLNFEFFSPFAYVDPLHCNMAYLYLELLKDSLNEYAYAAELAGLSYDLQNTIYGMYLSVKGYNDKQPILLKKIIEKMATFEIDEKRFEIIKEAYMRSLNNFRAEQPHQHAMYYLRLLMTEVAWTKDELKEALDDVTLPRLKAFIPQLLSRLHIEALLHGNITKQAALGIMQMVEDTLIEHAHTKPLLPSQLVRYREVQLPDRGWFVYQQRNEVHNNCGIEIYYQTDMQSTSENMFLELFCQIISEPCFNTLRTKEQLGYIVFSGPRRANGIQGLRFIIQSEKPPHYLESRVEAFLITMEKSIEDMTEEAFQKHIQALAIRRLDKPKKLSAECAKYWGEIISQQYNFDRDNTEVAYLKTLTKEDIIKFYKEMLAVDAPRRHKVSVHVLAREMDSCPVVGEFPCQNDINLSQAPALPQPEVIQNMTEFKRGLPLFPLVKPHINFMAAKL
Experiment: FITC-insulin-mAb degradation by double mutant IDE (Gln363Ala, His332Ala)
Type: biochemical
Settings: 20 µM D10
Source text: Since D10 has been found as the strongest activator of IDE towards the proteolysis of insulin, we analyzed the binding site of the compound D10 for the further analysis. According to the computational results, D10 binds to Gln363 at the IDE exosite and His332 (Fig. 1D). We carried out site-directed mutagenesis by replacing these amino acids into Ala in order to verify that D10 indeed binds to this region via these amino acids. We first mutated Gln363 to Ala and then expressed and purified mutant protein through nickel resin. The effect of D10 on the proteolytic activity of mutant IDE (Gln363Ala) was measured towards FITC-insulin-mAb degradation. […] The activation was about 49-fold in the presence of D10 with wild type IDE (Fig. 2B). Although mutant IDE activity was less responsive to D10 compound compared to wild type IDE, it appeared as if D10 were interacting with IDE through […] and could enhance the activity of mutant IDE. […]
The utility of these novel compounds were tested on degradation of insulin by IDE. […] The proteolysis of insulin by IDE was monitored by measuring the changes in fluorescence, where the reaction was carried out with 100 nM of FITC- insulin-mAb and IDE (80 ng) in 100 µl KH2PO4 buffer at a pH of 7.3. […] The increase in fluorescence was monitored by using Fluoroskan Ascent FL microplate reader (Thermo).

## Cc1nn(-c2ccccc2)c2nc(-c3cccc([N+](=O)[O-])c3)n3c4ccccc4nc3c2c1=O [Compound D10]
  binding to exosite of double mutant IDE: could not bind to IDE exosite
